Here are results for 1 compound from article PMC12828148, “Engineered cyclic peptide targeting ITGA5 disrupts tumor–stroma interaction to overcome desmoplasia and resistance in pancreatic ductal adenocarcinoma” (Acta Pharmaceutica Sinica. B, 2025).

Peptide text beside a SMILES is read from it.

The target in one data set is T1, human integrin α5β1 (Homo sapiens, UniProt P05556+P08648).
T1 construct: purchased RnD (printed for the alanine-replacement peptide array, not for the ELISA itself)
In words: ITGA5 competition study (α5β1 binding to FN-coated plate, ELISA). The note with it: human recombinant α5β1 on FN-coated plate, increasing peptide concentrations. The protocol:
To examine the affinity of the peptide to the target ITGA5, a 96 well MaxiSorp™ (Thermo Scientific) was coated with 100 μL FN (Advanced Biomatrix) at 1 μg/mL by overnight incubation at 4 °C. Next, the plate was washed with DPBS (Lonza) and blocked with 5% bovine serum albumin (BSA) in DPBS for at least 1 h at RT. In the meantime, mentioned concentrations of the peptides were mixed with 2 μg/mL human integrin α5β1 in DPBS with Mg^2+ and Ca^2+. The mixture was then set to rest for 30 min at RT. After blocking with 5% BSA, the plate was washed with DPBS. The mixture of integrin α5β1 and peptide was transferred to a well plate and incubated for 1 h at RT. Next, the plate was washed three times with PBS with 0.1% Tween 20 (PBS-T) and then mouse anti-human CD49e (RnD Systems) was added. After 1 h of incubation, plate was washed and the secondary peroxidase labeled antibody was added and incubated for 1 h at RT. After washing with PBS-T, the plate was quickly developed with 3,3′,5,5′-tetramethylbenzidine (TMB) (50 μL per well) and incubated for 5 min at RT in the dark. The reaction was stopped with 3 mol/L H2SO4 (50 μL per well) and the absorbance was measured at 450 nm with plate reader (Tecan).

The test system of a further data set is hPSCs. Description: Cell viability, Alamar blue assay. The format is cell-based, human. Here is the method:
We investigated the inhibitory effect of both cyclic and linear peptides on PSC activation and signaling. To achieve this, PSCs were seeded and treated with TGF-β and peptides for 48 h (protein expression) or 24 h (gene expression). We also tested the effect of the peptide on the cell viability using Alamar blue assay and found no toxicity (Supporting Information Fig. S3A). […] To quantitate that, we performed Western blot analysis and confirmed the observed effect via immunostaining (Fig. 2B and C; Fig. S3B). The details of the antibodies used can be found in Supporting Information Table S2. […] After obtaining these effects, we focused on cyAV3.3 and examined its inhibitory effects on TGF-β1-stimulated PSCs using qPCR and an RT[2] profiler PCR array for ECM and adhesion receptors (Fig. 2D). […] The details of primers for all genes can be found in Supporting Information Table S3. […] In contrast, cyAV3.3 induced the gene expression of ECM-degrading proteins such as MMP10 and ADAMTS-13 (Supporting Information Fig. S4).

In data set [1] the test system is hPSC activated with TGF-β. Description: Inhibition of TGF-β-induced PSC activation (immunocytochemical staining, Western blot). It is filed as cell-based, human. The conditions noted are these: 5 ng/mL TGF-β, 48 h, peptides at 20 and 50 μmol/L. Here is the method: secondary peroxidase labeled antibody was added and incubated for 1 h at RT. The HRP signal was developed using standard chemiluminescence kit and the signal was measured.
To evaluate the stability, 20 µmol/L peptide was incubated in 50% human plasma at biological temperature 37 °C for 1, 2, and 24 h. After incubation, plasma was precipitated by adding equal volume of 4% trichloroacetic acid (TCA) and rested on ice for 10 min. As control (or 0h), precipitation was performed immediately after mixing the peptide and plasma. Supernatant was collected after centrifugation at 13,300 × g and assessed using reversed phase high performance liquid chromatography (HPLC) with 5%, 95%, and 99.9% acetonitrile in de-gassed water with 0.1% trifluoroacetic acid as eluents. The remaining peptide was analyzed at a wavelength 280 nm.
Quantitative real-time PCR
To examine the effect of peptides on the gene expression of hPSC activation markers, cells were seeded into a 12 well plate at a seeding density of 50,000 cells/well. After overnight incubation, cells were starved for 24 h, then treated with human recombinant 5 ng/mL TGF-β (Peprotech, Hamburg, Germany) and […] peptide. After 24 h of the incubation, cells were lysed and total RNA was isolated using GenElute™ Mammalian Total RNA Miniprep Kit (Sigma–Aldrich) and the RNA concentration was measured using a NanoDrop® ND-1000 Spectrophotometer (Thermo Scientific, Waltham, USA). cDNA was synthesized with iScript™ cDNA Synthesis Kit (BioRad, Veenendaal, The Netherlands), and 10 ng cDNA was used for each PCR reaction. […] Quantitative real time PCR was performed with 2× SensiMix SYBR and Fluoroscein Kit (Bioline GmbH, Luckenwalde, Germany) using a BioRad CFX384 Real-Time PCR detection system (BioRad). […]
To evaluate the effect of peptides on the protein expression of hPSC activation markers, hPSCs were seeded into a 12 well plate at seeding density 50,000 cells/well. […] Proteins were detected with […]
medium. […] Images were analyzed using […]
secondary fluorescence-labeled antibody diluted in PBS. […]
Background: Immunoblotting shows a protein as a band on a membrane.

Regarding `C[C@@H]1NC(=O)[C@H](CCCNC(=N)N)NC(=O)[C@H](Cc2ccc(O)cc2)NC(=O)[C@H](Cc2ccc(O)cc2)NC(=O)[C@H](CCCNC(=N)N)NC(=O)CNC(=O)[C@H](CCCCN)NC(=O)[C@H](Cc2ccc(O)cc2)NC(=O)[C@H]([C@@H](C)O)NC1=O` [cyAV3.3] (cyclo(ATYKGRYYR)), at human integrin α5β1, the “blocking of FN-α5β1 interaction, cyclic versus linear” value is on record as “blocked the interaction significantly stronger than AV3.3”. In addition, the “effect on cell viability” value in the data set with hPSCs is “no toxicity”. In data set [1] (Western blot), the “inhibition of downstream signaling p-FAK” value is listed as “more inhibition”. Also, the “inhibition of PSC activation by TGF-β1 (expression of α-SMA and collagen-1)” value in data set [1] (immunostaining and Western blot) is listed as “much stronger than AV3.3”.
